Where a SMILES comes first, the peptide text is derived from it. [ ]: non-standard residue; d: D form. pGlu = O=C1CC[C@@H](C(=O)O)N1; dNle = CCCC[C@@H](N)C(=O)O; Nle = CCCC[C@H](N)C(=O)O; Aib = CC(C)(N)C(=O)O
Key:
[1] = Surrogate Activity-Based Plasma Stability Assay; assay type: in vitro ADME; details: rat, Surrogate activity-based Plasma stability t½
Description: Stability half-life was then calculated by the formula, t½=0.693÷k Surrogate Activity-Based Plasma Stability Assay: […]
2) Calculate slope of value above and […]

hAPJ = biological target: T1, hAPJ (Homo sapiens, UniProt P35414); assay: hAPJ Calcium Flux Assay; assay type: cell-based; details: Chem-5 APJ stable cells, FLIPR calcium flux stimulation; read-out: hAPJ Ca^2+ Flux EC50
T1 sequence (P35414 1-380): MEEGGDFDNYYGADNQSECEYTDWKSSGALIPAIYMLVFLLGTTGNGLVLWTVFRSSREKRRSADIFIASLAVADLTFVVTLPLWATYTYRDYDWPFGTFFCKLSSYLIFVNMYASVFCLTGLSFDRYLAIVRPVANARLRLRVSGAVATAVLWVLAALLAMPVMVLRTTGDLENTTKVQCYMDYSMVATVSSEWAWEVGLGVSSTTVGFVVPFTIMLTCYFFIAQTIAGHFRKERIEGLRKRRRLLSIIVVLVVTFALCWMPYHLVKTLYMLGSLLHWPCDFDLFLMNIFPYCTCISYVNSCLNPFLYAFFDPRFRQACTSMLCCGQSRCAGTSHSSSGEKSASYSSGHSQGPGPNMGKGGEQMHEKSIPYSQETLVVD
Description: Chem-5 APJ stable cells (Millipore # HTS068C) were plated in 384-well format with 10,000 cells/well in 25 ul growth media, then grown 24 hours in a 37° C. tissue culture incubator. One hour before the assay, 25 ul/well FLIPR Calcium 4 dye (Molecular Devices R8142) with 2.5 mM probenecid was added, and cells were incubated one hour in a 37° C. tissue culture incubator. Peptides were solubilized in HBSS, HEPES & 0.1% BSA buffer, and serially-diluted 10-fold, from 50 uM to […], in triplicate. FLIPR Tetra was used to add peptide to the cells with dye (1:5, for final peptide concentrations ranging from 10 uM to […]). FLIPR dye inside the cells emitted fluorescence after binding to calcium, while fluorescence from outside the cells was masked. Fluorescence was measured using 470-495 excitation and 515-575 emission wavelengths on the FLIPR Tetra. Readings were done for 3 minutes total, beginning 10 seconds before the peptide addition. Maximum-minimum values were calculated and plotted for each peptide concentration, and GraphPad prism software was used to calculate EC50 values at the curve inflection points, for calcium flux stimulation by peptides.

half-life [1] [h] | EC50 (hAPJ) [nM] | Structure (SMILES)
14.8 | 4.5 | CCCC[C@H](NC(=O)[C@@H]1CCCN1C(=O)CNC(=O)[C@H](CCCCN)NC(=O)[C@H](Cc1c[nH]cn1)NC(=O)[C@@H](C)NC(=O)[C@H](CC(C)C)NC(=O)[C@H](CCCNC(=N)N)NC(=O)[C@@H]1CCCN1C(=O)[C@H](CCCNC(=N)N)NC(=O)[C@@H]1CCC(=O)N1)C(=O)N[C@H](C)C(=O)N[C@@H](Cc1ccccc1)C(=O)O [Example 39, pE-R-P-R-L-a-H-K-G-P-Nle-a-F-OH]
> 16.7 | 2 | CCCC[C@@H](NC(=O)[C@@H]1CCCN1C(=O)CNC(=O)[C@H](CCCCN)NC(=O)C(C)(C)NC(=O)[C@H](CO)NC(=O)[C@H](CC(C)C)NC(=O)[C@H](CCCNC(=N)N)NC(=O)[C@@H]1CCCN1C(=O)[C@H](CCCNC(=N)N)NC(=O)[C@@H]1CCC(=O)N1)C(=O)N[C@H](C)C(=O)N[C@H](Cc1ccccc1)C(=O)O [Example 40, pE-R-P-R-L-S-Aib-K-G-P-nle-a-f-OH] ([pGlu]RPRLS[Aib]KGP[dNle][dA][dF]-OH)
0.703 | 4.5 | CCCC[C@H](NC(=O)[C@@H]1CCCN1C(=O)CNC(=O)[C@H](CCCCN)NC(=O)C(C)(C)NC(=O)[C@H](CO)NC(=O)[C@H](CC(C)C)NC(=O)[C@H](CCCNC(=N)N)NC(=O)[C@@H]1CCCN1C(=O)[C@H](CCCNC(=N)N)NC(=O)[C@@H]1CCC(=O)N1)C(=O)N1CCC[C@H]1C(=O)N[C@H](Cc1ccccc1)C(=O)O [Example 41, pE-R-P-R-L-S-Aib-K-G-P-Nle-P-f-OH]
> 16.7 | 2.4 | CCCC[C@H](NC(=O)[C@@H]1CCCN1C(=O)CNC(=O)[C@H](CCCCN)NC(=O)C(C)(C)NC(=O)[C@H](CO)NC(=O)[C@H](CC(C)C)NC(=O)[C@H](CCCNC(=N)N)NC(=O)[C@@H]1CCCN1C(=O)[C@H](CCCNC(=N)N)NC(=O)[C@@H]1CCC(=O)N1)C(=O)N[C@H](C)C(=O)N[C@@H](Cc1ccccc1)C(=O)O [Example 42, pE-R-P-R-L-S-Aib-K-G-P-Nle-a-F-OH] ([pGlu]RPRLS[Aib]KGP[Nle][dA]F-OH)
2.97 | 2 | CCCC[C@@H](NC(=O)[C@@H]1CCCN1C(=O)CNC(=O)[C@H](CCCCN)NC(=O)[C@H](Cc1c[nH]cn1)NC(=O)[C@@H](C)NC(=O)[C@H](CC(C)C)NC(=O)[C@H](CCCNC(=N)N)NC(=O)[C@@H]1CCCN1C(=O)[C@H](CCCNC(=N)N)NC(=O)[C@@H]1CCC(=O)N1)C(=O)N1CCC(Oc2ccccc2)CC1 [Example 43, pE-R-P-R-L-a-H-K-G-P-nle-(4-Phenoxypiperidin-1-yl)]
9.25 | 3 | CCCC[C@@H](NC(=O)[C@@H]1CCCN1C(=O)CNC(=O)[C@H](CCCCN)NC(=O)[C@H](Cc1c[nH]cn1)NC(=O)[C@@H](CC)NC(=O)[C@H](CC(C)C)NC(=O)[C@H](CCCNC(=N)N)NC(=O)[C@@H]1CCCN1C(=O)[C@H](CCCNC(=N)N)NC(=O)[C@@H]1CCC(=O)N1)C(=O)N[C@H](C)C(=O)N[C@H](Cc1ccccc1)C(=O)O [Example 44, pE-R-P-R-L-abu-H-K-G-P-nle-a-f-OH]
> 16.7 | 2.4 | CCCC[C@@H](NC(=O)[C@@H]1CCCN1C(=O)CNC(=O)[C@H](CCCCN)NC(=O)[C@H](Cc1c[nH]cn1)NC(=O)[C@@H](C)NC(=O)[C@H](CC(C)C)NC(=O)[C@H](CCCNC(=N)N)NC(=O)[C@@H]1CCCN1C(=O)[C@H](CCCNC(=N)N)NC(=O)[C@@H]1CCC(=O)N1)C(=O)N[C@H](CC)C(=O)N[C@H](Cc1ccccc1)C(=O)O [Example 45, pE-R-P-R-L-a-H-K-G-P-nle-abu-f-OH]
8.87 | 9.2 | CCCC[C@@H](NC(=O)[C@@H]1CCCN1C(=O)CNC(=O)[C@H](CCCCN)NC(=O)[C@@H](Cc1ccccc1)NC(=O)[C@@H](C)NC(=O)[C@H](CC(C)C)NC(=O)[C@H](CCCNC(=N)N)NC(=O)[C@@H]1CCCN1C(=O)[C@H](CCCNC(=N)N)NC(=O)[C@@H]1CCC(=O)N1)C(=O)N[C@H](C)C(=O)N[C@H](Cc1ccccc1)C(=O)O [Example 46, pE-R-P-R-L-a-f-K-G-P-nle-a-f-OH] ([pGlu]RPRL[dA][dF]KGP[dNle][dA][dF]-OH)
